Reference: patent US6903104B2, “Indol-3-YL-2-oxoacetamide compounds and methods of use thereof” (National Health Research Institutes, priority 2001, dated 2005)

Experiments:
breast MCF7 cancer cells = assay: In vitro cytotoxicity MTS assay, breast MCF7; type: cell-based, human; details: 72 hours
Description: (§1) A panel of human cancer cells, gastric NUGC3 and HR, nasopharyngeal HONE1, hepatocellular HEP G2 and HA-22T, colorectal DLD1, lung A549, prostate PC3, breast MCF7 and its adriamycin-resistant MCF7/ADR subline, uterus MES-SA and its adriamycin-resistant MES-SA/Dx5 subline, is purchased from Food Industry Research and Development Institute, Hsinchu, Taiwan R.O.C. or American Type Culture Collection, Manassas, Va. U.S.A., are used in in vitro cytotoxicity assays. The human cells are seeded at a cell density of 3000 or 4500 cells/100 μl/well in 96-well flat-bottom plates and incubated for 24 hours at 37° C. in a 5% CO2 incubator. The testing compounds are dissolved in dimethyl sulfoxide (DMSO) and further diluted into the culture medium for treatments of human cancer cells in vitro. The drug-containing media has a final DMSO concentration of ≦0.3%. The compounds of this invention are prepared in culture media for testing at a range of concentrations from 10, 1, 0.1, 0.01 to 0.001 μM. Each compound solution is (200 μl/well in duplicate) in the cell plates and is treated for 72 hours at 37° C., 5% CO2 in an incubator. Actinomycin D at 5 μM and 0.3% DMSO are used as the positive and vehicle controls, respectively. A colorimetric assay using 3-(4,5-dimethylthiazol-2-yl)-5-(3-carboxymethoxyphenyl)-2-(4-sulfophenyl)-2H-tetrazolium (MTS) and phenazine methosulfate (PMS) is used to determine the potency of the compounds. This assay measures cell viability based on the cellular activity in conversion of a tetrazolium salt into a colored soluble formazan product. The optical density (OD) values are measured at 490 nm with a 1420 multilabel counter VICTOR® from Wallac, Turku, Finland. All of the measured values are subtracted with that of the blank control wells without cells before further calculations. The efficacy data are expressed as a percentage normalized to the vehicle controls as calculated in the following formulae. Inhibitory potency (% of vehicle control)=[(OD490compound−OD490blank)/(OD490vehicle−OD490blank)]×100%. The concentration (IC50) of a test compound that inhibits 50% of the cellular activity is determined.

[1] = test system: adriamycin-resistant MCF7/ADR subline; assay: In vitro cytotoxicity MTS assay, adriamycin-resistant MCF7/ADR; type: cell-based, human; details: 72 hours
Description: as §1

[2] = test system: uterus MES-SA cancer cells; assay: In vitro cytotoxicity MTS assay, uterus MES-SA; type: cell-based, human; details: 72 hours
Description: as §1

[3] = test system: hepatocellular HEP G2 cancer cells; assay: In vitro cytotoxicity MTS assay, hepatocellular HEP G2; type: cell-based, human; details: 72 hours
Description: as §1

lung A549 cancer cells = assay: In vitro cytotoxicity MTS assay, lung A549; type: cell-based, human; details: 72 hours
Description: as §1

[4] = test system: gastric NUGC3 cancer cells; assay: In vitro cytotoxicity MTS assay, gastric NUGC3; type: cell-based, human; details: 72 hours
Description: as §1

[5] = test system: prostate PC3 cancer cells; assay: In vitro cytotoxicity MTS assay, prostate PC3; type: cell-based, human; details: 72 hours
Description: as §1

[6] = test system: hepatocellular HA-22T cancer cells; assay: In vitro cytotoxicity MTS assay, hepatocellular HA-22T; type: cell-based, human; details: 72 hours
Description: as §1

[7] = test system: rat aorta endothelial cells; assay: Rat aorta tube formation assay (angiogenesis inhibition); type: cell-based, Spraque-Dawley rats; set-up: key: Noninhibitors are indicated by the symbol (−), meaning that the extent of endothelial cell growth is essentially at the same level as that of the control; The most potent inhibitors receive a score of (+++++), indicating essentially no measurable endothelial cell growth; details: 5 days
Description: The procedures are modified from previous reports (Burbridge and West 2001; Bauer et al. 2000; Nicosai and Ottinetti 1990a) and described as follows. Male Spraque-Dawley rats of 6-8 weeks old are purchased from the National Laboratory Animal Breeding and Research Center (Taipei, Taiwan). The animals are anesthetized with urethane (2 g/kg, intraperitoneal) and the thoracic aortas are quickly harvested in a laminar flow hood. The aortas are rinsed with ice-cold normal saline with 10 μg/ml gentamicin and the attached fibroadipose tissues are removed using micro-dissection scissors. The aortas are cross-sectioned into rings of 1 mm in thickness. A mixture of Matrigel®, purchased from BD Biosciences, solution and the EBM-II medium, purchased from BioWhittaker Inc., (1:1) with 2% FBS, 0.25 mg/ml, amphotericin B and 10 μg/ml gentamicin is prepared and added at 100 μl to each well of a 48-well plate. The mixture is allowed to gel at 37° C. Aorta rings are then placed onto the gelled matrix and embedded in an additional 150 μl per well of the mixture solution and allowed to gel at 37° C. The aorta rings are then covered with 125 μl of the EGM-II medium and incubated overnight in humidified incubator with 5% CO2/95% air at 37° C. After removal of the EGM-II from the established aorta cultures, the compound-containing media are applied at 300 μl per well to the cultures and then incubated in 5% CO2/95% air at 37° C. for 5 days. The cultures are then subject to the 3-[4,5-dimethylthiazol-2-yl]-2,5 diphenyl-2H-tetrazolium bromide (MTT) or 3-(4,5-dimethylthiazol-2-yl)-5-(3-carbomethoxyphenyl)-2H-tetrazolium (MTS) assay and OD490 nm values measured. The testing compounds are dissolved in dimethyl sulfoxide (DMSO) and prepared in EBM-II media with at a final concentration of DMSO less than 0.1%.
The capillary-like, tube structure of the outgrown rat aorta endothelial cells is easily visualized by MTT staining. The medium on top of the matrix is removed from the established aorta ring cultures. MTT solution of 5 mg/ml in saline is added to the cultures at 100 μl/well and the cultures are incubated in a CO2 incubator at 37° C. for 24 hr. The stained cultures are then examined under a microscope DMIRB from Leica and photos taken with a digital camera.
Inhibition activity is also assessed in the following manner. The reductive reaction of MTS initiated by the viable cellular mitochondrial activity is used as a basis for the measurement of cell viability (Cory et al. 1991; Gieni et al. 1995). To the rat aorta ring cultures 300 μl of a solution containing 100 μg MTS and 1 μg, phenazine methosulfate is added per well and incubated in 5% CO2/95% air at 37° C. for 24 hr. During the incubation, MTS is converted to formazan product. At the end of incubation, the solution overlaying the gel is well-mixed and 100 μl aliquots are transferred into a 96-well plate for measurement of OD490 nm with a spectrophotometer VICTOR™-II from Wallac Oy.
The compounds listed in Table 3 are screened for angiogenesis inhibition. The control compound, ASTA, is D-24851, N-[pyridin-4-yl]-[1-(4-chlorobenzyl)-indol-3-yl]-glyoxylic acid amide. Noninhibitors are indicated by the symbol (−), meaning that the extent of endothelial cell growth is essentially at the same level as that of the control.

Molecule Cc1cc(Cn2cc(C(=O)C(=O)Nc3cc(C)ns3)c3ccccc32)on1 [Compound 56] has an IC50 (breast MCF7 cancer cells) of 36 nM, an IC50 [1] of 5 µM and an IC50 [2] of 293 nM. The IC50 [3] was 93 nM, the IC50 (lung A549 cancer cells) was 557 nM and the IC50 [4] was 12 nM. The IC50 [5] was 628 nM, the IC50 [6] was 123 nM and the “Inhibition Score” value ([7]; final conc. 0.3 μg/ml) was “+++++”. For the same molecule, the “Inhibition Score” value ([7]; final conc. 1 μg/ml) was “−”.
Cc1cc(NC(=O)C(=O)c2cn(Cc3ccc(C#N)cc3)c3ccccc23)sn1 [Compound 25] gave an IC50 (breast MCF7 cancer cells) of 469 nM, an IC50 [1] of 5.24 µM and an IC50 [2] of 373 nM. For the same molecule, the IC50 [3] was 1790 nM, the IC50 (lung A549 cancer cells) was 545 nM and the IC50 [4] was 514 nM. For the same molecule, the IC50 [5] was 689 nM, the IC50 [6] was 692 nM and the “Inhibition Score” value ([7]; final conc. 0.3 μg/ml) was “+++++”.
